Key:
Type in all cases: cell-based
NKG2A^+ NK cells = experiment: Intracellular cytokines of human blood NK cells using SAMT-247 and PMA stimulation with or without zinc chelator; details: PMA stimulation with or without SAMT-247, presence of TPEN
Procedure: Intracellular cytokines of Human blood NK cells using SAMT-247 and PMA stimulation with or without zinc chelator. The levels of NKG2A^+ NK cells were measured in blood of healthy humans. Human PBMCs were thawed and cultured in R10 in the presence or absence of SAMT-247 and/or PMA for 12 hours. Cells were incubated with or without Zinc chelator TPEN (cat. #P4413-100 MG, 5 μM) for 12 h. Subsequently, PBMCs were surface stained with the following: BUV737 anti-CD3 (SP34-2; cat. #741872, 5 μl), Alexa700 anti-CD20 (2H7; cat. #560631, 5 μl), BV786 anti-CD45 (HI30; cat. #563716, 5 μl) from BD Biosciences; APC-H7 anti-CD11b (ICRF44; cat. #47-0118-42, 5 μl) from eBioscience and PE-Cy7 anti-NKG2A (Z199; cat. #B10246, 5 μl) from Beckman coulter for 30 minutes at room temperature. This was followed by permeabilization with FOX3-transcription buffer set (cat. #00-5523-00) from eBioscience according to the manufacture's recommendation and subsequently intracellular staining with the following: BV750 anti-TNF-α (MAB11; cat. #566359, 5 μl), BUV396 anti-IFN-γ (B27; cat. #563563, 5 μl), BV510 anti-GranB (GB11; cat. #563388, 5 μl) from BD Biosciences; and FITC anti-Perforin (pf-344; cat. #3465-7, 5 μl) from MABTECH for 30 minutes at room temperature. Flow cytometry acquisitions were performed on a FACSymphony A5 and examined using FACSDIVA™ software (BD Biosciences).

Th1 and Th2 cells = experiment: Zinc chelation: macaque blood T cells, SAMT-247 and/or gp120 peptides with or without TPEN; details: for frequency of IFN-γ^+ Th1^+ cells / frequency of IFN-γ^+ Th1^+CCR5^+α4β7^+ cells / frequency of IFN-γ^+ Th1^+CCR5^−α4β7^− cells / frequency of IFN-γ^+ Th2^+ cells / frequency of IFN-γ^+ Th2^+CCR5^+α4β7^+ cells / frequency of IFN-γ^+ Th2^+CCR5^−α4β7^− cells / frequency of IL-10^+ Th1^+ cells / frequency of IL-10^+ Th1^+CCR5^+α4β7^+ cells / frequency of IL-10^+ Th1^+CCR5^−α4β7^− cells / frequency of IL-10^+ Th2^+ cells / frequency of IL-10^+ Th2^+CCR5^+α4β7^+ cells / frequency of IL-10^+ Th2^+CCR5^−α4β7^− cells / frequency of TNF-α^+ Th1^+ cells / frequency of TNF-α^+ Th1^+CCR5^+α4β7^+ cells / frequency of TNF-α^+ Th1^+CCR5^−α4β7^− cells / frequency of TNF-α^+ Th2^+ cells / frequency of TNF-α^+ Th2^+CCR5^+α4β7^+ cells: with vs without zinc chelator
Procedure: (§1) Zinc chelation: The frequencies and cytokine levels of NK cells, monocytes and T cells were measured in macaque blood. Cryopreserved PBMCs were thawed and cultured in R10 in the presence/or absence of SAMT-247 and/or gp120 peptides for 12 hours. Cells were incubated with or without Zinc chelator TPEN (cat. #P4413-100 MG, 5 μM) for 12 h. Subsequently, cells were stained for live cells with Live/Dead Blue dye (cat. #L34962, 0.5 μl) from Thermofisher; followed by surface staining with the following: Alexa 700 anti-CD3 (SP34-2; cat. #557917, 5 μl), BV711 anti-CD4 (L200; cat. #563913, 5 μl), BB700 anti-CD8 (RPA-T8; cat. #566452, 5 μl), BUV737 anti-CD20 (2H7; cat. #612848, 5 μl), PE anti-CD45 (D058-1283; cat. #552833, 5 μl), BV786 anti-CCR5 (3A9; cat. #565001, 5 μl), BV496 anti-CD16 (3G8; cat. #612944, 5 μl), BUV661 anti-HLA-DR (G46-6; cat. #612980, 5 μl), BUV805 anti-CD14 (M5E2; cat. #565779, 5 μl) from BD Biosciences; APC-H7 anti-CD11b (ICRF44; cat. #47-0118-42, 5 μl), PE-Cy5 anti-CD95 (ICRF44; cat. #15-0959-42, 5 μl) from eBioscience; APC anti-α4β7, provided by the NIH Nonhuman Primate Reagent Resource (R24 OD010976, and NIAID contract HHSN272201300031C); BV605 anti-CCR6 (G034E3; cat. #353420, 5 μl), BV650 anti-CXCR3 (G025H7; cat. #353730, 5 μl), from Biolegend and PE-Cy7 anti-NKG2A (Z199; cat. #B10246, 5 μl) from Beckman coulter for 30 minutes at room temperature. This was followed by permeabilization with a FOX3-transcription buffer set (cat. #00-5523-00) from eBioscience according to the manufacture's recommendation and subsequently intracellular staining with the following: BV750 anti-TNF-α (MAB11; cat. #566359, 5 μl), BUV395 anti-IFN-γ (B27; cat. #563563, 5 μl), BV510 anti-GranB (GB11; cat. #563388, 5 μl), BV421 anti-IL-10 (JES3-9D7; cat. #564053, 5 μl), PE-CF594 anti-Ki67 (B56; cat. #567120, 5 μl) from BD Biosciences and FITC anti-Perforin (pf-344; cat. #3465-7, 5 μl) from MABTECH for 30 minutes at room temperature. Flow cytometry acquisitions were performed on a FACSYMPHONY™ A5 and examined using FACSDIVA™ software (BD Biosciences).

CD14^+ monocytes = experiment: Zinc chelation: macaque blood monocytes, SAMT-247 and/or gp120 peptides with or without TPEN
Procedure: as §1

NKG2A^+ cells = experiment: Zinc chelation: macaque blood NK cells, SAMT-247 and/or gp120 peptides with or without TPEN; details: for frequency of IFN-γ^+ NKG2A^+ cells / frequency of TNF-α^+ NKG2A^+ cells: with vs without zinc chelator
Procedure: as §1

human NK cells = experiment: Zinc intensity by confocal microscopy
Procedure: Zinc intensity. NKG2A^+ NK cells were isolated from cryopreserved healthy human PBMCs. NK cells were labeled with APC anti-NKG2A (Z199, cat. #A60797) from Beckman coulter, followed by separation with APC MicroBeads (#130-090-855, Miltenyi Biotec Inc.) using manufacturer instructions. Subsequently NK cells were cultured in the presence or absence of SAMT-247 and/or PMA stimulation for 7 hours. Cells were plated on ibidi chamber slides. Cells were washed and treated with zinc chelator or remained untreated for 30 minutes according to the manufacturers' recommendation using a cell-based Zinc assay kit (cat. #ab241014, Abcam). Subsequently cells were washed and stained with Zinc probe-green (cat. #ab241014, Abcam) and DAPI (Molecular Probes, Waltham, MA, USA) was used to visualize nuclei. Signals were visualized with a confocal laser-scanning microscope (Leica SP8, Buffalo Grove, IL, USA). Image processing was performed using the Imaris 9.2.1 software.

[1] = gp120 pooled peptide + SAMT-247
[2] = SAMT-247, with vs without zinc chelator
[3] = gp120 pooled peptide + SAMT-247, with vs without zinc chelator
[4] = gp120 pooled peptide, with vs without zinc chelator
[5] = gp120 pooled peptides ± SAMT-247, TPEN treatment

c1ccc(CN(CCN(Cc2ccccn2)Cc2ccccn2)Cc2ccccn2)nc1 [Zinc chelator, N, N,N′,N′ tetrakis-(2-pyridyl-methyl) ethylendiamine]
IFN-γ and TNF-α expression in human NKG2A^+ cells (NKG2A^+ NK cells): significantly reduced
frequency of IFN-γ^+ Th1^+ cells (Th1 and Th2 cells; SAMT-247): ↓
frequency of IFN-γ^+ Th1^+CCR5^+α4β7^+ cells (Th1 and Th2 cells; SAMT-247): ↓
frequency of IFN-γ^+ Th1^+CCR5^−α4β7^− cells (Th1 and Th2 cells; SAMT-247): ↓
frequency of IFN-γ^+ Th2^+ cells (Th1 and Th2 cells; SAMT-247): ↓
frequency of IFN-γ^+ Th2^+CCR5^+α4β7^+ cells (Th1 and Th2 cells; SAMT-247): ↓
frequency of IFN-γ^+ Th2^+CCR5^−α4β7^− cells (Th1 and Th2 cells; SAMT-247): ↓
frequency of IL-10^+ Th1^+ cells (Th1 and Th2 cells; SAMT-247): ↓
frequency of IL-10^+ Th1^+CCR5^+α4β7^+ cells (Th1 and Th2 cells; SAMT-247): ↓
frequency of IL-10^+ Th1^+CCR5^−α4β7^− cells (Th1 and Th2 cells; SAMT-247): ↓
frequency of IL-10^+ Th2^+ cells (Th1 and Th2 cells; SAMT-247): ↓
frequency of IL-10^+ Th2^+CCR5^+α4β7^+ cells (Th1 and Th2 cells; SAMT-247): ↓
frequency of IL-10^+ Th2^+CCR5^−α4β7^− cells (Th1 and Th2 cells; SAMT-247): ↓
frequency of TNF-α^+ Th1^+ cells (Th1 and Th2 cells; SAMT-247): ↓
frequency of TNF-α^+ Th1^+CCR5^+α4β7^+ cells (Th1 and Th2 cells; SAMT-247): ↓
frequency of TNF-α^+ Th1^+CCR5^−α4β7^− cells (Th1 and Th2 cells; SAMT-247): ↓
frequency of TNF-α^+ Th2^+ cells (Th1 and Th2 cells; SAMT-247): ↓
frequency of TNF-α^+ Th2^+CCR5^+α4β7^+ cells (Th1 and Th2 cells; SAMT-247): ↓
INF-γ and IL-10 production in Th2 CCR5^−α4β7^− cells (Th1 and Th2 cells; TPEN): decreased
frequency of IFN-γ^+ Th1^+CCR5^+α4β7^+ cells (Th1 and Th2 cells; Unstim): ↓
frequency of IL-10^+ Th1^+CCR5^+α4β7^+ cells (Th1 and Th2 cells; Unstim): ↓
frequency of IL-10^+ Th1^+CCR5^−α4β7^− cells (Th1 and Th2 cells; Unstim): ↓
frequency of IL-10^+ Th2^+CCR5^+α4β7^+ cells (Th1 and Th2 cells; Unstim): ↓
frequency of TNF-α^+ Th2^+CCR5^+α4β7^+ cells (Th1 and Th2 cells; Unstim): ↓
frequency of IFN-γ^+ Th1^+ cells (Th1 and Th2 cells; [1]): ↓
frequency of IFN-γ^+ Th1^+CCR5^+α4β7^+ cells (Th1 and Th2 cells; [1]): ↓
frequency of IFN-γ^+ Th1^+CCR5^−α4β7^− cells (Th1 and Th2 cells; [1]): ↓
frequency of IFN-γ^+ Th2^+ cells (Th1 and Th2 cells; [1]): ↓
frequency of IFN-γ^+ Th2^+CCR5^+α4β7^+ cells (Th1 and Th2 cells; [1]): ↓
frequency of IFN-γ^+ Th2^+CCR5^−α4β7^− cells (Th1 and Th2 cells; [1]): ↓
frequency of IL-10^+ Th1^+ cells (Th1 and Th2 cells; [1]): ↓
frequency of IL-10^+ Th1^+CCR5^+α4β7^+ cells (Th1 and Th2 cells; [1]): ↓
frequency of IL-10^+ Th1^+CCR5^−α4β7^− cells (Th1 and Th2 cells; [1]): ↓
frequency of IL-10^+ Th2^+ cells (Th1 and Th2 cells; [1]): ↓
frequency of IL-10^+ Th2^+CCR5^+α4β7^+ cells (Th1 and Th2 cells; [1]): ↓
frequency of IL-10^+ Th2^+CCR5^−α4β7^− cells (Th1 and Th2 cells; [1]): ↓
frequency of TNF-α^+ Th1^+CCR5^−α4β7^− cells (Th1 and Th2 cells; [1]): ↓
frequency of TNF-α^+ Th2^+ cells (Th1 and Th2 cells; [1]): ↓
frequency of TNF-α^+ Th2^+CCR5^+α4β7^+ cells (Th1 and Th2 cells; [1]): ↓
frequency of IFN-γ^+ Th1^+CCR5^+α4β7^+ cells (Th1 and Th2 cells; gp120 pooled peptide): ↓
frequency of IFN-γ^+ Th1^+CCR5^−α4β7^− cells (Th1 and Th2 cells; gp120 pooled peptide): ↓
frequency of IFN-γ^+ Th2^+ cells (Th1 and Th2 cells; gp120 pooled peptide): ↓
frequency of IFN-γ^+ Th2^+CCR5^+α4β7^+ cells (Th1 and Th2 cells; gp120 pooled peptide): ↓
frequency of IL-10^+ Th1^+CCR5^+α4β7^+ cells (Th1 and Th2 cells; gp120 pooled peptide): ↓
frequency of IL-10^+ Th1^+CCR5^−α4β7^− cells (Th1 and Th2 cells; gp120 pooled peptide): ↓
frequency of IL-10^+ Th2^+CCR5^+α4β7^+ cells (Th1 and Th2 cells; gp120 pooled peptide): ↓
frequency of IL-10^+ Th2^+CCR5^−α4β7^− cells (Th1 and Th2 cells; gp120 pooled peptide): ↓
frequency of TNF-α^+ Th1^+ cells (Th1 and Th2 cells; gp120 pooled peptide): ↓
frequency of TNF-α^+ Th1^+CCR5^+α4β7^+ cells (Th1 and Th2 cells; gp120 pooled peptide): ↓
frequency of TNF-α^+ Th2^+CCR5^+α4β7^+ cells (Th1 and Th2 cells; gp120 pooled peptide): ↓
percentage of CCR5^+α4β7^+ Th1 and Th2 cells (Th1 and Th2 cells; week 17, gp120 pooled peptides ± SAMT-247, TPEN): decreased percentage
number of Th1 CCR5^−α4β7^− cells (Th1 and Th2 cells; week 17, gp120 pooled peptides ± SAMT-247, Zn chelation): decreased
frequency of CD14^+ cells (CD14^+ monocytes; [2]): ↓
frequency of IL-10^+ CD14^+ cells (CD14^+ monocytes; [2]): ↓
frequency of CD14^+ cells (CD14^+ monocytes; [3]): ↓
frequency of IL-10^+ CD14^+ cells (CD14^+ monocytes; [3]): ↓
frequency of CD14^+ cells (CD14^+ monocytes; [4]): ↓
frequency of IL-10^+ CD14^+ cells (CD14^+ monocytes; [4]): ↓
IL-10 production by CD14^+ cells (CD14^+ monocytes; [5]): decreased
frequency of CD14^+ cells (CD14^+ monocytes; [5]): decreased
IFN-γ and TNF-α expression in NKG2A^+ cells (NKG2A^+ cells; gp120 peptide and gp120 peptide/SAMT-247 treated cells, TPEN): significantly decreased
SAMT-247's ability to increase granzyme B and perforin in NKG2A^+ cells (NKG2A^+ cells; gp120 peptide stimulation, presence of TPEN): No significant changes
frequency of IFN-γ^+ NKG2A^+ cells (NKG2A^+ cells; [1]): ↓
frequency of TNF-α^+ NKG2A^+ cells (NKG2A^+ cells; [1]): ↓
frequency of IFN-γ^+ NKG2A^+ cells (NKG2A^+ cells; gp120 pooled peptide): ↓
frequency of TNF-α^+ NKG2A^+ cells (NKG2A^+ cells; gp120 pooled peptide): ↓
zinc intensity of PMA+SAMT-247 stimulated cells vs not treated with chelator (human NK cells): significantly lower

— patent US20240277829A1, “HIV-1 VACCINATION AND SAMT-247 MICROBICIDE TO PREVENT HIV-1 INFECTION” (priority 2021, published 2024)
